Assay: gradient 5% acetonitrile 3 min, to 50% in 2 min, to 85% in 15 min, held 3 min, 100 µL/min
Conditions: column: Zorbax Extend-C18 2.1 x 50 mm; eluents: water / acetonitrile, 0.1% formic acid
How it was run: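 The system's dead and dwell volumes were 40 μL and 900 μL, with a Zorbax Extend-C18 column (2.1 × 50 mm, 1.8 μm) run at 100 μL/min in water and acetonitrile containing 0.1% formic acid each. Pure standards were analyzed in mixtures of ~100 molecules by HPLC–quadrupole time-of-flight mass spectrometry in positive and negative ionization mode. Retention time was assigned from computationally picked, manually inspected adduct peaks.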

SMILES	RP-LC retention time [s]
Cc1ccc(-c2cn3c(CC(=O)N4c5ccccc5CC4C)csc3n2)cc1C (configuration not stated)	965
Cc1sc(NC(=O)c2ccco2)nc1-c1ccc2c(c1)N(C)C(=O)CO2	844
O=C(Cn1ccn2nc(-c3ccc(F)cc3)c(CO)c2c1=O)Nc1cc(F)ccc1F	843
CCOC(=O)c1nc(NCc2ccccc2Cl)c2c(CC)noc2n1	1010
CCn1ncc(NC(=O)COc2ccc(C(C)C)cc2)c(N2CCOCC2)c1=O	1050
Cc1cccc(Cn2c(C)c(CNCCc3ccco3)c(C(=O)O)c2C)c1	720
CCCNC(=O)C1CCN(c2ccc(SCC(=O)NCc3ccccc3Cl)nn2)CC1	644
Cc1cnn(CC(=O)N2CCC3(CC2)CC(C)(O)CCO3)c1 (configuration not stated)	603
COc1ccc(NC(=O)Cn2c(=O)n(-c3ccc(C)cc3)c(=O)c3c2cc(C)n3C)cc1Cl	891
COc1ccccc1-c1nn2c(-c3ccc4ccccc4n3)nnc2s1	1040
CC(C)(C)c1nc(N2CCCCC2)c2ccccc2n1	723
O=C(Nc1ccccc1)N1CCCC(c2nnnn2-c2ccccc2)C1 (configuration not stated)	820
CC(C)(C)NC(=O)Nc1nnc(SCc2c(F)cccc2Cl)s1	946
CCc1ccc(-c2cc3c(=O)n(CC(=O)NCC4CCCN4CC)ncn3n2)cc1 (configuration not stated)	689
CCn1cc(S(=O)(=O)N2CCO[C@@H](COc3ccccn3)[C@@H]2c2ccccc2)cn1	898
Cc1ccc(-c2ncc(C(=O)Nc3cc(F)cc(F)c3)c(-c3ccncc3)n2)cc1	1060
CCn1ncc(Br)c1C(=O)Nc1ccccc1Cl	1090
O=C(c1cc(F)ccc1F)N1CCCC1c1nc(-c2ccc(F)cc2)no1 (configuration not stated)	1030
CCOC(=O)c1nnc2c(-c3ccccc3)c(C)nn2c1N	828
O=C(O)c1cnc(NCC2CC2)nc1-c1ccccc1	745
CN1CCCc2cc(C(=O)NCc3ccccc3)sc21	882
Cc1nc(-c2cccc(-c3noc(CNC(=O)Cc4ccc(Cl)cc4)n3)c2)cs1	986
CN(C)S(=O)(=O)c1cc2c(cc1N1CCN(c3ccccn3)CC1)Oc1ccccc1NC2=O	639

SMILES	RP-LC retention time [s]
O=C(Cn1cccc1-c1nc(-c2ccc(Cl)cc2)cs1)NCc1ccccn1	795
Cc1ccc(-c2noc(CN3C(=O)COc4ccc(C(C)(C)C)cc43)n2)cc1	1310
COc1ccc(Cl)cc1S(=O)(=O)NCCc1c[nH]c2ncccc12	654
CCOC(=O)c1[nH]c(C)c(CCC(=O)N2CCC(C(=O)NCc3ccccc3OCC)CC2)c1C	832
CC(=O)Nc1ccc(NC(=O)c2cc3sccc3n2Cc2ccc(Cl)cc2)cc1	965
CS(=O)(=O)N1CCC(C(=O)NCc2cccc(Oc3ccc(F)cc3)c2)CC1	767
O=C(NCc1ccc(F)cc1)c1ccc2c(c1)Sc1ncccc1C(=O)N2C1CC1	791
CC1Oc2ccc(-c3csc(NC(=O)c4cccs4)n3)cc2N(C)C1=O (configuration not stated)	949
Cc1nnsc1C(=O)Nc1nnc(SCC(=O)NCc2ccco2)s1	692
COc1ccc(NC(=O)C2CCCN(C(=O)C3Sc4ccccc4NC3=O)C2)cc1 (configuration not stated)	750
CCc1cc(C(=O)N2CCCC2c2ccc(C)cc2)no1 (configuration not stated)	999
Cc1ccc(CNC(=O)C2CCN(S(C)(=O)=O)c3ccccc3O2)cc1 (configuration not stated)	854
COc1ccc2c(c1)CCc1sc(NC(=O)c3cc(OC)c(OC)c(OC)c3)nc1-2	1080
CCCc1cc(N2CCN(C(=O)c3nccc4ccccc34)CC2)nc2nncn12	619
CCc1noc(-c2ccc(-n3cnc(C(=O)NC(C)c4ccccc4)c3)nc2)n1 (configuration not stated)	919
Cc1ccc(CNC(=O)c2nnc(-c3ccc(S(=O)(=O)N4CCC(C)CC4)cc3)o2)o1	923
Cc1ccc(C)c(NC(=O)N2CCC3(CC2)NC(=O)c2ccccc2N3C)c1	763
CCN1c2ccccc2C(=O)NC12CCN(C(=O)Nc1ccccc1C)CC2	731
Cc1cc(C)c(C(=O)N2CCC(CC(=O)NCc3ccccc3C)CC2)[nH]1	794
CN1C2CCC1CC(OC(c1ccccc1)c1ccccc1)C2 (configuration not stated)	784
O=C(CCc1cn(Cc2ccccc2F)c2ccccc12)N1CCN(c2ccccn2)CC1	737
COC(=O)c1c(NCCc2cccs2)c2ccc(F)cc2[nH]c1=O	766
COCCCNC(=O)CN1c2ccccc2NC2=C(C(=O)CC(C)(C)C2)C1c1ccco1 (configuration not stated)	725

SMILES	RP-LC retention time [s]
NC(CO)(CO)CCc1ccc(Sc2cccc(OCc3ccccc3)c2)cc1Cl	837
COc1ccc(NC(=O)c2ccc(N3C(=O)CCC3=O)cc2)c([N+](=O)[O-])c1	716
CC(C)C(=O)N1CCC(c2nc(CNC(=O)C3CCC3)cs2)CC1	662
CC(=O)OC1CCN(C(=O)C(C)(C)C)CC1	726
COc1ccc(CC(=O)NCC2CCN(C(=O)c3cc4ccccc4o3)CC2)cc1OC	703
COc1ccc2c(c1)CC(NC(=O)N1CCN(Cc3ccccc3)CC1)CO2 (configuration not stated)	637
O=C(CN1CCc2ccccc2C1C(=O)N1CCCCC1)NCc1ccc(F)c(Cl)c1 (configuration not stated)	936
O=C(CCc1csc(NC(=O)NC2CCCCC2)n1)NCc1ccc2c(c1)OCO2	718
CCN(CC)S(=O)(=O)c1ccc2c(c1)cc(C(=O)NCCN(C)C)n2C	639
CCCNC(=O)c1ccccc1OCc1nc(-c2ccccc2)no1	954
O=C(NCC(O)c1ccsc1)c1ccc2nsnc2c1 (configuration not stated)	659
COc1cc(OC)c(NC(=O)Cn2ccc3ccc(-c4nnc(C)o4)cc32)cc1Cl	859
CCCc1ccc(S(=O)(=O)N2C[C@@H]3C(=O)N(C(CC)c4cccs4)C(=O)[C@@H]3C2)cc1 (some centres not stated)	1160
O=C(C1CCC1)N1CCC(c2nc(C3CCOCC3)no2)C1 (configuration not stated)	671
COCCn1cc2c3c(cccc31)CN(C(=O)c1ccc(Cl)cc1)CC2	1000
COc1cccc(CNC(=O)C2(C)CCCN(C(=O)Nc3ccccc3Br)C2)c1 (configuration not stated)	942
O=C1COc2ccc(S(=O)(=O)N3CCC(C(=O)N4CCOCC4)CC3)cc2N1	620
O=C(CCc1c(-c2ccccc2)nc2ccccn12)Nc1ccccc1Br	683
O=C(c1cccc(F)c1)N1CCC(n2c(-c3ccoc3)nc3cccnc32)C1 (configuration not stated)	735
Cc1cc(C)cc(Nc2c(C(=O)N3CCCC(C)C3)cnc3nc(C)ccc23)c1 (configuration not stated)	672
O=C(c1ccc(OCC2CCCN2C(=O)C2CCC2)cc1)N1CCCC1 (configuration not stated)	783

— the METLIN SMRT retention time set (Domingo-Almenara et al. 2019)
